Paper PMC7251097, “Aspartate/asparagine-β-hydroxylase: a high-throughput mass spectrometric assay for discovery of small molecule inhibitors” (Scientific Reports, 2020)
Where a name gives a salt, the structure may show the parent alone. Read-outs that look alike come from different tables or passages of the source. Values belong to the compound of their own block, whether it stands above or below them.

Molecular target: T1, His6-AspH315–758 (human aspartate/asparagine-β-hydroxylase, AspH) (Homo sapiens, UniProt Q12797)
T1 construct: N-Terminally His6-tagged human AspH315–758 (His6-AspH315–758) was produced in E. coli BL21 (DE3) cells; made in house; host or cells: E. coli BL21 (DE3), pET-28a(+) vector
T1 sequence (Q12797 315-758): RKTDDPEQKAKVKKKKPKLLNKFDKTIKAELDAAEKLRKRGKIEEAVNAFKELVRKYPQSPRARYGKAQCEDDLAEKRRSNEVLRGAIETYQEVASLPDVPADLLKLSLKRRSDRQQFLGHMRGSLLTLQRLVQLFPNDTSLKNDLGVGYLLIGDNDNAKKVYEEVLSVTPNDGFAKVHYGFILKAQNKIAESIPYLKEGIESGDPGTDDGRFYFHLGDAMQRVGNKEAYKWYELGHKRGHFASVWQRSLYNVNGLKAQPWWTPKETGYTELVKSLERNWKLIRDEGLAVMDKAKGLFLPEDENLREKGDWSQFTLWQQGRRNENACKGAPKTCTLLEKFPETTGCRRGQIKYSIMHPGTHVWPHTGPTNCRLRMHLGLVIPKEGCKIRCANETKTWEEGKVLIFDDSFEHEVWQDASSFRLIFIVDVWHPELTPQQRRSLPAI
Assay: SPE-MS AspH inhibition assay (LOPAC screen at fixed 20 μM and IC50 dose-response), hydroxylation of cyclic peptide hFX-CP101–119
Type: biochemical
Conditions: for IC50: read-out: IC50; for Plate 5 (% inhibition) / Plate 5 (% conversion): plate 5 (Pfitzer), test compounds at fixed 20 μM; for Plate 5 (% conversion): mean conversion DMSO 32.88; for Inhibition at 20 µM [%]: AspH activity, fixed compound concentration 20 μM, initial LOPAC screen, 0.5%v/v DMSO

[1] = LOPAC Plate 4, compound at 20 uM, substrate conversion
[2] = LOPAC compound at fixed 20 uM, plate 1, normalised to DMSO and 2,4-PDCA controls
[3] = LOPAC compound at fixed 20 uM, substrate conversion, plate 1
[4] = LOPAC compound at 20uM, plate 3, conversion of substrate peptide
[5] = 50 nM His6-AspH315–758, 1.0 μM hFX-CP101–119, 3 μM 2OG, 2 μM Fe(II), 50 mM HEPES pH 7.5, 20 °C, mean ± SD, n = 2 (2,4-PDCA n = 10)
[6] = LOPAC compound at 20uM, plate 2, conversion of substrate peptide
[7] = LOPAC compound at 20uM, plate 2, normalised to DMSO and 2,4-PDCA controls

Compound: CCCCCCCC/C=C\CCCCCCCC(=O)NCCc1ccc(O)c(O)c1 [N-Oleoyldopamine]
% inhibition (LOPAC Plate 4, compound at 20 uM): 94.15%
% conversion [1]: 4.34%

Compound: O=C(O)c1ccccc1Nc1ccccc1 [N-Phenylanthranilic acid]
Plate 1 (% inhibition) [2]: 20.57%
Plate 1 (% conversion) [3]: 28.96%

Compound: NS(=O)(=O)c1cccc2c1c([N+](=O)[O-])cc1nc([O-])c([O-])nc12.[Na+].[Na+] [NBQX disodium]
Plate 3 (% conversion) [4]: 7.99%

Compound: O=C(O)/C=C1\CCCc2ccccc2C1O (centres unmarked) [NCS-382]
Plate 3 (% conversion) [4]: 38.57%

Compound: O=C(Nc1cccc(C(=O)Nc2ccc(S(=O)(=O)O)c3cc(S(=O)(=O)O)cc(S(=O)(=O)O)c23)c1)Nc1cccc(C(=O)Nc2ccc(S(=O)(=O)O)c3cc(S(=O)(=O)O)cc(S(=O)(=O)O)c23)c1 [NF 023, reference compound]
Plate 3 (% conversion) [4]: 4.28%

Compound: [H]/N=C(/NC)NCCC[C@H](N)C(=O)O [NG-Monomethyl-L-arginine acetate]
Plate 3 (% conversion) [4]: 38.37%

Compound: O=C1C(SCCO)=C(SCCO)C(=O)c2ccccc21 [NSC 95397]
Plate 2 (% conversion): 23.59%
Plate 2 (% inhibition) (20 µM): 36.92%

Compound: CCn1cc(C(=O)[O-])c(=O)c2ccc(C)nc21.[Na+] [Nalidixic acid sodium]
Plate 3 (% conversion) [4]: 26.41%

Compound: C=CCN1CC[C@]23c4c5ccc(O)c4O[C@H]2C(=O)CC[C@@]3(O)[C@H]1C5 [Naloxone hydrochloride]
Plate 3 (% conversion): 40.30%

Compound: O=C1CC[C@@]2(O)[C@H]3Cc4ccc(O)c5c4[C@@]2(CCN3CC2CC2)[C@H]1O5 [Naltrexone hydrochloride]
Plate 3 (% conversion): 34.83%

Compound: Cc1cccc(C)c1NC(=O)CN1CCCC1=O [Nefiracetam]
Plate 2 (% conversion): 34.89%
inhibition at 20 µM (read-out: Plate 2 (% inhibition)): 3.19%

Compound: CS(=O)(=O)O.Cc1c(O)cccc1C(=O)N[C@@H](CSc1ccccc1)[C@H](O)CN1C[C@H]2CCCC[C@H]2C[C@H]1C(=O)NC(C)(C)C.O [Nelfinavir mesylate hydrate]
Plate 2 (% conversion) [6]: 32.94%
Plate 2 (% inhibition) [7]: 9.02%

Compound: CN(C)C(=O)Oc1cccc([N+](C)(C)C)c1 [Neostigmine bromide]
Plate 3 (% conversion): 40.63%

Compound: COC(=O)C1=C(C)NC(C)=C(C(=O)OC)C1c1ccccc1[N+](=O)[O-] [Nifedipine]
Plate 3 (% conversion): 39.50%

Compound: Cc1ncc(CNC(=O)N(CCCl)N=O)c(N)n1 [Nimustine hydrochloride]
Plate 3 (% conversion): 38.40%

Compound: CNCCC(Oc1ccccc1OC)c1ccccc1 (centres unmarked) [Nisoxetine hydrochloride]
Plate 3 (% conversion): 39.53%

Compound: COC(=O)Nc1nc2ccc(C(=O)c3cccs3)cc2[nH]1 [Nocodazole]
Plate 3 (% conversion): 40.67%

Compound: O=C1OC(=O)[C@H]2[C@@H]1[C@@H]1CC[C@H]2O1 [Norcantharidin]
Plate 3 (% conversion): 35.60%

Compound: Nc1nc(OCc2ccccc2)c2nc[nH]c2n1 [O6-benzylguanine]
Plate 1 (% inhibition) [2]: -1.55%
Plate 1 (% conversion) [3]: 36.39%

Compound: Cc1cc2c(s1)Nc1ccccc1N=C2N1CCN(C)CC1 [Olanzapine]
% conversion: 42.51%
inhibition at 20 µM: -17.7%

Compound: CCCCCCCC/C=C\CCCCCCCC(=O)O [Oleic Acid]
Plate 3 (% conversion): 10.92%

Compound: CCCCCCCC/C=C\CCCCCCCC(=O)NCc1ccc(O)c(OC)c1 [Olvanil]
Plate 3 (% conversion): 40.29%

Compound: CN(CC[C@@H](Oc1ccc(C(F)(F)F)cc1)c1ccccc1)CC(=O)[O-].[Li+] [Org 24598 lithium salt]
Plate 1 (% conversion): 40.79%
Plate 1 (% inhibition): -14.64%

Compound: O=C(O)/C=C/C(=O)O.O=C(O)/C=C/C(=O)O.O=C(O)/C=C/C(=O)O.O=C1CCCN1CC#CCN1CCCC1.O=C1CCCN1CC#CCN1CCCC1 [Oxotremorine sesquifumarate salt]
Plate 3 (% conversion): 14.90%

Compound: Nc1ccc(CCN2CCN(c3cccc(C(F)(F)F)c3)CC2)cc1 [PAPP]
% conversion: 42.06%
% inhibition (20 µM): -16.38%

The next lines start with the values.

Plate 3 (% conversion) [4]: 40.79%
Compound: N=C(NCCC[C@H](N)C(=O)O)N[N+](=O)[O-] [NG-Nitro-L-arginine]

Plate 3 (% conversion) [4]: 58.37%
Compound: CC(C)[C@H]1c2ccc(F)cc2CC[C@@]1(CCN(C)CCCc1nc2ccccc2[nH]1)OC(=O)C1CC1 [NNC 55-0396]

IC50 [μM] [5]: weak
IC50 [5]: 15.5 ± 3.13 µM
Compound: O=C(O)C(=O)N[C@H](Cc1ccccc1)C(=O)O [NOFD, N-oxalyl-D-phenylalanine, reference compound]

Plate 2 (% conversion) [6]: 28.28%
Plate 2 (% inhibition) [7]: 22.93%
Compound: O=C(Nc1cc(C(F)(F)F)cc(C(F)(F)F)c1)Nc1c(Br)cc(Br)cc1-c1nn[nH]n1 [NS5806]

Plate 2 (% conversion) [6]: 39.37%
Plate 2 (% inhibition) [7]: -10.19%
Compound: Cl.c1ccc2c(c1)CCC[C@H]2Nc1nc2ccccc2[nH]1 [NS8593 hydrochloride]

Plate 3 (% conversion) [4]: 35.06%
Compound: O=c1onc2n1-c1cc(Br)ccc1OC2 [NS 2028]

Plate 3 (% conversion) [4]: 36.56%
Compound: O=c1[nH]c2cc(C(F)(F)F)ccc2n1-c1cc(C(F)(F)F)ccc1O [NS-1619]

Plate 2 (% conversion) [6]: 37.98%
Plate 2 (% inhibition) [7]: -6.05%
Compound: CN(C)C(N)=NCCC[C@H](N)C(=O)O.Cl [N^G,N^G-Dimethylarginine hydrochloride]

Plate 5 (% inhibition): -70.28%
Plate 5 (% conversion): 60.23%
Compound: COc1ccc2c(c1)CCC(c1ccccc1)=C2c1ccc(OCCN2CCCC2)cc1 [Nafoxidine]

Plate 3 (% conversion) [4]: 38.59%
Compound: c1ccc2c(CC3=NCCN3)cccc2c1 [Naphazoline hydrochloride]

Plate 2 (% conversion) [6]: 39.49%
inhibition at 20 µM (LOPAC compound at 20uM, plate 2, normalised to DMSO and 2,4-PDCA controls, read-out: Plate 2 (% inhibition)): -10.6%
Compound: CNS(=O)(=O)CCc1ccc2[nH]cc(C3CCN(C)CC3)c2c1 [Naratriptan hydrochloride]

Plate 5 (% inhibition): 38.58%
Plate 5 (% conversion): 23.19%
Compound: Cc1c(O)cccc1C(=O)N[C@@H](CSc1ccccc1)[C@H](O)CN1C[C@H]2CCCC[C@H]2C[C@H]1C(=O)NC(C)(C)C [Nelfinavir]

Plate 3 (% conversion) [4]: 41.91%
Compound: CCOC(=O)C1=C(C)NC(C)=C(C(=O)OCC)C1c1c(F)c(F)c(F)c(F)c1F [Nemadipine-A]

Plate 3 (% conversion) [4]: 44.76%
Compound: COC(=O)C1=C(C)NC(C)=C(C(=O)OCCN(C)Cc2ccccc2)C1c1cccc([N+](=O)[O-])c1 (centres unmarked) [Nicardipine hydrochloride]

Plate 3 (% conversion) [4]: 32.98%
Compound: O=C(O)c1cccnc1Nc1cccc(C(F)(F)F)c1 [Niflumic acid]

Plate 3 (% conversion) [4]: 43.84%
Compound: COCCOC(=O)C1=C(C)NC(C)=C(C(=O)OC(C)C)C1c1cccc([N+](=O)[O-])c1 (centres unmarked) [Nimodipine]

Plate 3 (% conversion) [4]: 38.78%
Compound: CCOC(=O)C1=C(C)NC(C)=C(C(=O)OC)C1c1cccc([N+](=O)[O-])c1 (centres unmarked) [Nitrendipine]

Inhibition at 20 µM [%]: 98.9%
Compound: CC(Cc1ccc(O)c(O)c1)C(C)Cc1ccc(O)c(O)c1 (centres unmarked) [Nordihydroguaiaretic acid, reference compound]

Plate 3 (% conversion) [4]: 38.14%
Compound: COc1ccc2c(c1OC)C(=O)O[C@@H]2[C@H]1c2c(cc3c(c2OC)OCO3)CCN1C.Cl [Noscapine hydrchloride]

Plate 3 (% conversion) [4]: 36.07%
Compound: CC(CCc1ccccc1)NC(C)C(O)c1ccc(O)cc1 (centres unmarked) [Nylidrin hydrochloride]

Plate 3 (% conversion) [4]: 35.30%
Compound: N[C@@H](COP(=O)(O)O)C(=O)O [O-Phospho-L-serine]

Plate 1 (% inhibition) [2]: -7.39%
Plate 1 (% conversion) [3]: 38.35%
Compound: CCCCCCCCCCCCCCCCCCc1ccc(C(=O)/C=C/C(=O)O)cc1 [OBAA]

Plate 3 (% conversion) [4]: 29.75%
Compound: CCCCCc1ccc(/C=C/C(=O)Nc2cc(Cl)ccc2C(=O)O)cc1 [ONO-RS-082]

Plate 5 (% inhibition): 28.06%
Plate 5 (% conversion): 26.77%
Compound: CCCN1CCC[C@@H](c2cccc(S(C)(=O)=O)c2)C1 [OSU6162]

Plate 3 (% conversion) [4]: 41.94%
Compound: CC1COc2c(N3CCN(C)CC3)c(F)cc3c(=O)c(C(=O)O)cn1c23 (centres unmarked) [Ofloxacin]

Plate 3 (% conversion) [4]: 37.63%
Compound: Cn1cnc2c(NCc3ccccc3)nc(NCCO)nc21 [Olomoucine]

% conversion [1]: 31.06%
Compound: Cc1[nH]c(=O)c(C#N)cc1-c1ccc2nccn2c1.Cl [Olprinone hydrochloride]

Plate 1 (% inhibition) [2]: -12.26%
Plate 1 (% conversion) [3]: 39.99%
Compound: OCCN1CCN(CCCN2c3ccccc3C=Cc3ccccc32)CC1 [Opipramol dihydrochloride]

Plate 3 (% conversion) [4]: 40.48%
Compound: CCN(CC)CC#CCOC(=O)C(O)(c1ccccc1)C1CCCCC1 (centres unmarked) [Oxybutynin Chloride]

Plate 3 (% conversion) [4]: 41.41%
Compound: Cc1cc(C(C)(C)C)c(O)c(C)c1CC1=NCCN1 [Oxymetazoline hydrochloride]

IC50 [5]: 3.53 ± 0.71 µM
Inhibition at 20 µM [%]: 96.1%
% conversion [1]: 3.66%
Compound: C=CCc1cccc(/C=N/NC(=O)CN2CCN(Cc3ccccc3)CC2)c1O [PAC-1, reference compound]
